In PMC10470178, “Long-acting lenacapavir protects macaques against intravenous challenge with simian-tropic HIV” (eBioMedicine, 2023):

How the values were obtained:
stHIV-A19 = test: PrEP protection from high-dose intravenous stHIV-A19 challenge in pigtail macaques; format: in vivo, pigtail macaques (Macaca nemestrina)
Description: Sixteen male, purpose-bred pigtail macaques (Macaca nemestrina; ages 4.6–8.5 years at the time of study initiation) were housed at NIH-Bethesda (Supplementary Table S1). All study animals received enrofloxacin (10 mg/kg, administered orally, once per day for 10 days), paromomycin (25 mg/kg, administered orally, twice daily for 7–10 days), and fenbendazole (50 mg/kg administered orally, once per day for 5 days) two weeks to 43 months prior to study initiation. Lenacapavir or drug vehicle (sterile, preservative-free 57.5% w/v polyethylene glycol 300 in water) doses were administered to sedated animals via SC injection into the scapular region such that no more than 2 ml of solution was injected into a single SC site. Animals in the LEN pharmacokinetic evaluation study (N = 6) each received two doses of LEN, both at 15 mg/kg (N = 3) or at 50 mg/kg (N = 3), 6 weeks apart. Animals in the virus challenge experiment each received a single dose of LEN at 25 mg/kg (N = 3, LEN PrEP group) or drug vehicle (N = 4, vehicle control group) 30 days prior to stHIV-A19 challenge, or a cART regimen consisting of tenofovir disoproxil fumarate (TDF), emtricitabine (FTC), and dolutegravir (DTG) (N = 3, TDF/FTC/DTG group), coformulated and administered as previously described[29]^,[30] for 7 days beginning 3 days prior to stHIV-A19 challenge (Supplementary Figure S1). Hair was clipped and skin marked at LEN and vehicle injection sites to allow for subsequent visual and manual assessment and scoring of potential ISRs by non-blinded veterinary care staff. Complete blood counts (CBC) and serum chemistries were monitored prior to and at 2- to 4-week intervals after LEN administration for at least one year. Following the first dose of LEN in the PK study, one animal in the 50-mg/kg dosing group received 7 consecutive days of daily ketoprofen (2 mg/kg) administered intramuscularly for ISR analgesia at veterinary discretion. For the second dose of LEN in the PK study, all animals in the 50-mg/kg dosing group received 5–7 consecutive days of twice daily oral carprofen (2 mg/kg) analgesia administered prophylactically starting on the day of LEN dosing. In the IV challenge PrEP study, all LEN and vehicle control animals received 3–5 consecutive days of twice daily oral carprofen (2 mg/kg) analgesia administered prophylactically starting on the day of injection. For virus challenge, PrEP study animals each received 1 × 10^5 infectious units of stHIV-A19 injected intravenously. After LEN washout, LEN PrEP group animals received a single 50-mg/kg dose of rhesusized depleting anti-CD8α antibody (MT807R1, RRID: AB_2716320, NIH Nonhuman Primate Reagent Resource), administered SC to anesthetized animals.
Simian-tropic HIV was isolated from clarified PTM plasma by centrifugation (21,000×g for 1 h), and the resultant pellet was extracted as described.[31] Pigtail macaque PBMCs were subjected to nucleic acid extraction essentially as previously described for tissues.[32] HIV gag DNA and RNA copies were assessed using a multiplexed qPCR assay, as previously described.[33] Plasma stHIV-A19 vRNA levels are reported as copies/ml of plasma. PBMC-associated stHIV-A19 vDNA levels are reported as copies/10^6 cell equivalents, based on 2 copies of the CCR5 gene per diploid cellular genome.[34]
Plasma specimens collected from all 10 virus challenge animals prior to and at 8 weeks after stHIV-A19 challenge were evaluated for the presence of antibodies specific for HIV-1 by Western blot analysis using the GS HIV-1 Western Blot kit (Bio-Rad, cat #32508) according to the manufacturer’s instructions.
Statistical analyses were performed using R v4.1.1 ((R Core Team, 2021). R: A language and environment for statistical computing. R Foundation for Statistical Computing, Vienna, Austria. URL https://www.R-project.org/). […]

HIV-1 = tested on: HIV-1; parameters: method as in PMID 32612233; conditions: people with HIV-1, monotherapy, 450 mg, after 9 days of treatment; cited from earlier work
[1] = parameters: method as in earlier work; conditions: single SC injection of 900 mg LEN, Phase 1b clinical trial; cited from earlier work
[2] = all 3 LEN PrEP animals, 34 days of monitoring after anti-CD8α antibody at 419 days post-challenge

With CC(C)(C#Cc1ccc(-c2ccc(Cl)c3c(NS(C)(=O)=O)nn(CC(F)(F)F)c23)c([C@H](Cc2cc(F)cc(F)c2)NC(=O)Cn2nc(C(F)(F)F)c3c2C(F)(F)[C@@H]2C[C@H]32)n1)S(C)(=O)=O [LEN, Lenacapavir] as the compound, how does the “PBMC vDNA following CD8 depletion” value (stHIV-A19; [2]) read?
Its value is 6.2–11.0 vDNA copies/10^6 PBMC.

And the “plasma vRNA following CD8 depletion” value (stHIV-A19; [2])?
Its value is under 2.8 vRNA copies/ml plasma.

And the “cell-associated viral DNA (CA-vDNA) in PBMC after stHIV-A19 challenge” value (stHIV-A19; all animals of the group, any time point)?
Its value is “vDNA was not detected at any time point”.

What about the “plasma vRNA after stHIV-A19 challenge” value (stHIV-A19; assay threshold 2.8 vRNA copies/ml, LEN ∼370 days follow-up, TDF/FTC/DTG through 120 days post-challenge) of the same compound?
The value was “no plasma vRNA detected at any time point”.

What about the “infection rates compared with vehicle control group” value (stHIV-A19; each p < 0.03, Fisher's exact test) of the same compound?
The value was “significantly lower than in the vehicle control group”.

And the “HIV-1 Western blot serology” value (stHIV-A19; plasma, 8 weeks after stHIV-A19 challenge, all animals)?
The value was “remained seronegative”.

And the “protection from infection after stHIV-A19 challenge” value (stHIV-A19; single IV challenge 1 × 10^5 i.u., LEN 25 mg/kg SC 30 days before (N = 3), 3-drug regimen daily SC for 7 days from 3 days before (N = 3))?
The value was “protected PTMs from infection”.

And the “maximum reductions in plasma viral loads” value (HIV-1)?
Its value is over 100 fold.

And the “mean plasma drug concentrations relative to PA-EC95, maintained for 6 months” value [1]?
Its value is at least 6 fold.
